Results published in ChEMBL document CHEMBL4004849, “Tetrazolylmethyl quinolines: Design, docking studies, synthesis, anticancer and antifungal analyses” (2017).
Active and inactive are the calls of the source. The rule behind the calls is not given here.

Legend:
Assay type in all cases: functional
[1] = test system: K562; test: Growth inhibition of human K562 cells at 10^-5 M incubated for 48 hrs by sulforhodamine B assay relative to control; details: for inhibition of growth at 10 µM: K562, 48 h, read-out: GI
[2] = test system: HT-29; test: Growth inhibition of human HT-29 cells at 10^-5 M incubated for 48 hrs by sulforhodamine B assay relative to control; details: for inhibition of growth at 10 µM: HT-29, 48 h, read-out: GI
[3] = test system: SK-MEL-28; test: Growth inhibition of human SK-MEL-28 cells at 10^-5 M incubated for 48 hrs by sulforhodamine B assay relative to control; details: for inhibition of growth at 10 µM: SK-MEL-28, 48 h, read-out: GI
[4] = test system: OVCAR-3; test: Growth inhibition of human OVCAR3 cells at 10^-5 M incubated for 48 hrs by sulforhodamine B assay relative to control; details: for inhibition of growth at 10 µM: OVCAR-3, 48 h, read-out: GI
[5] = test system: OVCAR-4; test: Growth inhibition of human OVCAR4 cells at 10^-5 M incubated for 48 hrs by sulforhodamine B assay relative to control; details: for inhibition of growth at 10 µM: OVCAR-4, 48 h, read-out: GI
[6] = test system: OVCAR-5; test: Growth inhibition of human OVCAR5 cells at 10^-5 M incubated for 48 hrs by sulforhodamine B assay relative to control; details: for inhibition of growth at 10 µM: OVCAR-5, 48 h, read-out: GI
[7] = test system: NCI/ADR-RES; test: Growth inhibition of human NCI-ADR-RES cells at 10^-5 M incubated for 48 hrs by sulforhodamine B assay relative to control; details: for inhibition of growth at 10 µM: read-out: GI
[8] = test system: 786-0; test: Growth inhibition of human 786-0 cells at 10^-5 M incubated for 48 hrs by sulforhodamine B assay relative to control; details: for inhibition of growth at 10 µM: 786-0, 48 h, read-out: GI
[9] = test system: DU-145; test: Growth inhibition of human DU145 cells at 10^-5 M incubated for 48 hrs by sulforhodamine B assay relative to control; details: for inhibition of growth at 10 µM: DU-145, 48 h, read-out: GI
[10] = test system: MCF7; test: Growth inhibition of human MCF7 cells at 10^-5 M incubated for 48 hrs by sulforhodamine B assay relative to control; details: for inhibition of growth at 10 µM: MCF7, 48 h, read-out: GI
[11] = test system: Hs-578T; test: Growth inhibition of human Hs 578T cells at 10^-5 M incubated for 48 hrs by sulforhodamine B assay relative to control; details: for inhibition of growth at 10 µM: read-out: GI
[12] = test system: MDA-MB-468; test: Growth inhibition of human MDA-MB-468 cells at 10^-5 M incubated for 48 hrs by sulforhodamine B assay relative to control; details: for inhibition of growth at 10 µM: MDA-MB-468, 48 h, read-out: GI
[13] = test system: Aspergillus fumigatus; test: Antifungal activity against Aspergillus fumigatus at 100 ug/ml by disc diffusion method; details: read-out: IZ

SMILES	growth inhibition (GI) [1]	growth inhibition (GI) [2]	growth inhibition (GI) [3]	growth inhibition (GI) [4]	growth inhibition (GI) [5]	growth inhibition (GI) [6]	growth inhibition (GI) [7]	growth inhibition (GI) [8]	growth inhibition (GI) [9]	growth inhibition (GI) [10]	growth inhibition (GI) [11]	growth inhibition (GI) [12]	zone of inhibition at 100 µg/mL [13]	further results
Cc1ccc2nc(Cl)c(Cn3nnc(CSc4ccccc4)n3)cc2c1	Active	Active	Active	Active	Active	Active	Active	Active	Active	Active	Active	Active	18 mm	
Fc1ccc2nc(Cl)c(Cn3nnnc3Cc3ccccc3)cc2c1	Active	Active	Active	Active	Active	Active	Active	Active	Active	Active	Active	Active	10 mm	
COc1ccc2nc(Cl)c(Cn3nnnc3Cc3ccccc3)cc2c1	Active	Active	Active	Active	Active	Active	Active	Active	Active	Active	Active	Active	20 mm	
Cc1ccc2nc(Cl)c(Cn3nnnc3Cc3ccccc3)cc2c1	Active	Active	Active	Active	Active	Active	Active	Active	Active	Active	Active	Active	10 mm	
Fc1ccc2nc(Cl)c(Cn3nnc(CSc4ccccc4)n3)cc2c1	Active	Active	Active	Active	Active	Active	Active	Active	Active	Active	Active	Active	13 mm	
COc1ccc2nc(Cl)c(Cn3nnc(Cc4ccccc4)n3)cc2c1													20 mm	inhibition of growth at 10 µM [1]: 67.1%; inhibition of growth at 10 µM [2]: 72.6%; inhibition of growth at 10 µM [3]: 52.5%; inhibition of growth at 10 µM [4]: 50.1%; inhibition of growth at 10 µM [5]: 80.3%; inhibition of growth at 10 µM [6]: 17.2%; inhibition of growth at 10 µM [7]: 79.9%; inhibition of growth at 10 µM [8]: 52.5%; inhibition of growth at 10 µM [9]: 38.4%; inhibition of growth at 10 µM [10]: 72.1%; inhibition of growth at 10 µM [11]: 31.1%; inhibition of growth at 10 µM [12]: 70.1%
COc1ccc2nc(Cl)c(Cn3nnnc3CSc3ccccc3)cc2c1	Active	Active	Active	Active	Active	Active	Active	Active	Active	Active	Active	Active	18 mm	
Clc1nc2ccccc2cc1Cn1nnc(Cc2ccccc2)n1													16 mm	inhibition of growth at 10 µM [1]: 44.8%; inhibition of growth at 10 µM [2]: 28.4%; inhibition of growth at 10 µM [3]: 15.3%; inhibition of growth at 10 µM [4]: 40.5%; inhibition of growth at 10 µM [5]: 70.3%; inhibition of growth at 10 µM [6]: -4.25%; inhibition of growth at 10 µM [7]: 47.9%; inhibition of growth at 10 µM [8]: 27.1%; inhibition of growth at 10 µM [9]: 24.8%; inhibition of growth at 10 µM [10]: 54.2%; inhibition of growth at 10 µM [11]: 23.4%; inhibition of growth at 10 µM [12]: 88.9%
Cc1ccc2nc(Cl)c(Cn3nnnc3CSc3ccccc3)cc2c1	Active	Active	Active	Active	Active	Active	Active	Active	Active	Active	Active	Active	16 mm	
Clc1nc2ccccc2cc1Cn1nnc(CSc2ccccc2)n1	Active	Active	Active	Active	Active	Active	Active	Active	Active	Active	Active	Active	15 mm	
Clc1nc2ccc(Br)cc2cc1Cn1nnnc1Cc1ccccc1	Active	Active	Active	Active	Active	Active	Active	Active	Active	Active	Active	Active	13 mm	
Fc1ccc2nc(Cl)c(Cn3nnc(Cc4ccccc4)n3)cc2c1	Active	Active	Active	Active	Active	Active	Active	Active	Active	Active	Active	Active	15 mm	
Clc1nc2ccccc2cc1Cn1nnnc1CSc1ccccc1	Active	Active	Active	Active	Active	Active	Active	Active	Active	Active	Active	Active	16 mm	
Clc1nc2ccc(Br)cc2cc1Cn1nnc(Cc2ccccc2)n1	Active	Active	Active	Active	Active	Active	Active	Active	Active	Active	Active	Active	13 mm	
Fc1ccc2nc(Cl)c(Cn3nnnc3CSc3ccccc3)cc2c1	Active	Active	Active	Active	Active	Active	Active	Active	Active	Active	Active	Active	14 mm	
Clc1nc2ccc(Br)cc2cc1Cn1nnnc1CSc1ccccc1	Active	Active	Active	Active	Active	Active	Active	Active	Active	Active	Active	Active	20 mm	
